Reference: a melting point compilation (Tetko et al.)

melting point [°C]	Structure (SMILES)
260 to 265	O=C(O)c1cc(N=Nc2ccc(S(=O)(=O)Nc3ccccn3)cc2)ccc1O
250 to 252	O=C(O)c1ccc(Nc2ccccc2)c([N+](=O)[O-])c1
122 to 124	Cc1c(Br)cc(S(=O)(=O)Cl)cc1[N+](=O)[O-]
61 to 63	CCOC(C)c1nc(C(=O)O)cs1 (centres undefined)
94 to 96	O=Cc1cc(Cl)c2ccccc2c1O
69 to 71	N#Cc1ccc2c(n1)CCCC2
152 to 154	Nc1cnn(-c2ccncc2)c1
99 to 101	Nc1ccc2nc(C3CC3)oc2c1
156 to 158	O=S1(=O)CCC(Cc2nc3ccccc3[nH]2)C1 (centres undefined)
137 to 139	O=C(O)CCc1ccc(S(=O)(=O)N2CCCC2)cc1
176 to 178	Nc1cc(C(=O)O)ccc1OCC(F)(F)F
197 to 199	Cc1cc(C(=O)O)ccc1S(=O)(=O)Cl
74 to 76	CCc1cccc(CC)c1-n1ccnc1
149 to 151	Cc1[nH]c2ccc(CN)cc2c1C
286 to 288	O=C(O)c1c[nH]nc1-c1ccccc1
166 to 168	COC(=O)c1c(C(=O)OC)c(-c2cccc(N)c2)n2c1CCC2
162 to 164	Nc1nccc(-c2ccccc2)n1
95 to 97	COc1ccc(C(=O)c2cccc3ccccc23)cc1
227 to 229	CCn1c(S)nc2cc(S(=O)(=O)N3CCOCC3)ccc21
118 to 120	COc1cc(C)ccc1OCC(=O)O
239 to 241	O=C(O)CN1C(=O)c2cccnc2C1=O
103 to 105	N#CCc1c[nH]c2ccc(Br)cc12
200 to 202	Nc1cccc(-c2nnc3n2CCCCC3)c1

melting point [°C]	Structure (SMILES)
111 to 113	COc1cc2c(cc1OC)C(c1ccccc1)NCC2 (centres undefined)
168 to 170	O=C(O)CONS(=O)(=O)c1ccc(F)cc1
123 to 125	O=[N+]([O-])c1cc(S(=O)(=O)Nc2ccc(Br)cc2)ccc1Cl
124 to 126	Cc1nn(-c2ccc(F)cc2)c(Cl)c1C=O
175 to 177	O=C(NC1CCNCC1)c1ccc(F)cc1
166 to 168	CCCCC(NC(N)=O)C(=O)O (centres undefined)
203 to 205	O=C(O)CN1C(=O)c2ccccc2C(F)(F)C1=O
81 to 83	CCC(O)c1ccc(O)cc1 (centres undefined)
182 to 184	COc1cc(C(=O)O)ccc1OCc1cnn(C)c1
80 to 88	O=S(=O)(Cl)/C=C/c1ccccc1
97 to 99	O=Cc1cn(Cc2cccnc2)nn1
103 to 105	COC(=O)C1CCN(C(=O)c2ccc(Cl)c(Cl)c2)CC1
163 to 165	N#Cc1c(OCCO)n[nH]c1N
90 to 92	O=c1c(Cl)nccn1C1CC1
98 to 102	CCN(CC)C(N)=S
68 to 70	CCOC(=O)C(=O)CC(=O)c1ccc(Cl)cc1Cl
55 to 57	CC(=O)c1ccc(F)cc1OC(F)F
149 to 151	CNC(=O)Cn1cnc(N)n1
49 to 51	CC(C)C(Br)C(=O)c1ccccc1 (centres undefined)
34 to 36	Nc1cccc(OCC(F)(F)F)c1
141 to 143	Oc1nnnn1-c1ccc(Cl)cc1
97 to 99	CC(Cl)C(=O)Nc1cccc(CSc2ccccn2)c1 (centres undefined)
136 to 138	COc1ccc(C(=O)CO)cc1Cl

melting point [°C]	Structure (SMILES)
142 to 144	Nc1ccccc1CN1CCNC1=O
74 to 76	Cc1cc(CC#N)c(C)n1-c1ccc(Cl)cc1
189 to 191	Nc1cccc(-c2cn[nH]c2)c1
206 to 208	Cc1ccc(C)c2[nH]c(C(=O)O)cc12
65 to 67	O=C1OCC(c2ccc(Cl)cc2)=C1c1cccs1
76 to 78	O=C1CCCc2sc(Br)cc21
190 to 194	O=C(O)c1ccccc1-n1cnnn1
146 to 148	O=C(O)CCn1ccccc1=O
175 to 177	O=C(c1cc(Cl)nc2ccccc12)N1CCOCC1
201 to 203	CC1=C(C#N)CCC(=O)N1
129 to 131	Cc1cc(Cl)c(S(=O)(=O)Cl)cc1[N+](=O)[O-]
99 to 101	O=C(O)Cc1cccc(OCC(F)(F)F)c1
154 to 156	O=C(O)C1CCC(=O)N(Cc2ccccc2)C1 (centres undefined)
125 to 127	O=C(O)CCCOc1cccnc1
175 to 177	FC(F)(F)Cn1c(S)nnc1N1CCOCC1
108 to 110	COC(=O)c1ccc(CNC(=O)CCl)cc1
99 to 101	CC(C)Cn1[nH]c(-c2ccccc2)cc1=N
129 to 131	CCOc1cc(C(=O)O)ccc1OCC(=O)N1CCCCC1
153 to 155	NC(=NO)c1cccc(CN2CCCCC2)c1
75 to 77	CN(c1ccc(C(=O)CCl)cc1)S(C)(=O)=O
168 to 170	CC(=O)NC(CC(N)=O)C(=O)O (centres undefined)
76 to 78	N#CCc1ccc(OCc2ccccn2)cc1
160 to 162	O=C(O)c1ccccc1OCc1cccnc1

melting point [°C]	Structure (SMILES)
140 to 142	COc1cc(C(=O)O)ccc1OC(C)C
79 to 81	OCC1CNc2ccccc2C1 (centres undefined)
257 to 259	O=C(O)c1ccnc(C2CC2)c1
77 to 79	CCn1ccnc1C(O)CCc1ccccc1 (centres undefined)
112 to 114	O=Cc1ccccc1OCC(=O)N1CCCC1
200 to 202	CN(C)S(=O)(=O)c1cccc(-c2nnc(S)n2N)c1
232 to 236	O=C(O)c1c[nH]c(=O)[nH]1
213 to 215	O=C(O)C1CCN(c2ccc(Br)cn2)CC1
87 to 89	N#Cc1ccc2ocnc2c1
59 to 61	COCc1nc(CC(=O)O)cs1
316 to 318	Cc1cc(C)c2c(C#N)c[nH]c2n1
169 to 171	Nc1cc(C(=O)O)c(F)cc1F
119 to 121	CC(C)(C)n1nc(C(=O)O)cc1C1CC1
80 to 82	O=C(CCl)NCC#Cc1cccc(C(F)(F)F)c1
213 to 215	Cc1nc(=O)cc[nH]1
259 to 261	NC(=S)c1cccc(-c2nnc(N)o2)c1
290 to 292	CN1C(=O)C(C#N)=C(N)C12CCCC2
142 to 144	COc1cccc(-n2c(C)cc(C(=O)O)c2C)c1
84 to 86	COc1ccc(CC(O)C(=O)O)cc1 (centres undefined)
118 to 120	Nc1ccc(CC(=O)N2CCSCC2)cc1
170 to 174	O=C(O)c1ccc(Oc2ccc(F)cc2)cc1
162 to 164	CC(=O)c1ccc2c(c1)CCC(=O)N2
175 to 177	NC(=O)c1ccnc(F)c1

melting point [°C]	Structure (SMILES)
121 to 123	Cc1cccc(N2CCN(c3ccc(C#N)cn3)CC2)c1
89 to 91	Cc1ccc(NC2CCCCC2)nc1
135 to 137	Cc1cc(N)n(C(=O)OC(C)(C)C)n1
210 to 220	COc1ccccc1-c1nnc(S)n1N
115 to 117	COc1ccc(N)cc1CO
236 to 238	N#CCS(=O)(=O)c1ccc(C(=O)O)cc1
66 to 68	O=C(NCCCCl)C1CCCC1
42 to 44	Cc1nc(Cl)nc(C)c1Cc1ccccc1
54 to 56	Oc1ccc(OCC2CC2)cc1
104 to 106	NS(=O)(=O)Cc1ccccc1Cl
129 to 131	CN(C)C=C(C#N)S(C)(=O)=O
103 to 105	NC(=S)c1ccoc1
106 to 108	CC(Cl)C(=O)N(C)C1CCS(=O)(=O)C1 (centres undefined)
154 to 156	CC(=O)Nc1cccc(N=C=S)c1
124 to 126	COc1ccc(-c2csc(NC(=O)C(C)Cl)n2)cc1 (centres undefined)
158 to 160	CC(C)(C)OC(=O)N1CCN(C(N)=O)C(C(=O)O)C1 (centres undefined)
206 to 208	Nc1cccc(-c2ccc(=O)[nH]n2)c1
104 to 106	O=C(Nc1cccc(S(=O)(=O)C2CCCC2)c1)OCC(F)(F)F
111 to 113	COc1ccc(NS(=O)(=O)c2ccc(N3CCCCC3)c(N)c2)cc1
130 to 135	CC(Cl)C(=O)Nc1ccc(S(=O)(=O)N2CCCCC2)cc1 (centres undefined)
146 to 148	NCc1noc(-c2cccs2)n1
195 to 199	NC(=O)c1c(N)sc2c1CCCCC2
162 to 164	Nc1ccc(S(=O)(=O)Nc2ccc(F)cc2)cc1

melting point [°C]	Structure (SMILES)
214 to 216	O=C(O)CNC(=O)c1ccc(Cl)cc1
38 to 40	NCCNC(=O)c1ccc(Br)cc1
90 to 92	CN(C)C(=O)C1CNc2ccccc2O1 (centres undefined)
126 to 128	O=C(O)Cc1ccc(Cl)cc1Br
158 to 160	FC(F)(F)c1cc(Cl)nc(-c2ccncc2)n1
176 to 178	NNC(=O)c1n[nH]c2c1CCCC2
301 to 303	O=C1Nc2ccccc2S(=O)(=O)N1
138 to 140	CNC(=O)NCC(=O)O
202 to 204	CC1(c2cccc(C#N)c2)NC(=O)NC1=O (centres undefined)
93 to 95	N#Cc1ccc(Cl)cc1NCc1ccccc1
70 to 72	O=[N+]([O-])c1ccc(S(=O)(=O)Cl)c(Br)c1
50 to 52	COCCNC(=O)Cc1ccc(N)cc1
64 to 66	CN(C)C(=O)CCn1cc(Br)cn1
182 to 184	Cc1nn(C)c2nc(Cl)c(C=O)cc12
92 to 96	N#Cc1cc(F)ccc1N
52 to 54	CCn1ccnc(Cl)c1=O
148 to 150	CC(C)(C)CNC(N)=O
215 to 217	Cc1ccc(-c2nn(-c3ccccc3)cc2C(=O)O)cc1C
223 to 225	O=C(O)c1ccc(F)c(S(=O)(=O)N2CCCC2)c1
113 to 115	O=C(O)C1CCN(c2cccc(Cl)c2)C1=O (centres undefined)
242 to 244	O=C(O)CNC(=O)C1c2ccccc2C(=O)N1C1CC1 (centres undefined)
60 to 62	CNc1ncccn1
172 to 174	O=c1cc(CCl)nc2ccc(Br)cn12

Structure (SMILES)	melting point [°C]
Cc1ncc(CN2CCNCC2)s1	79 to 81
O=c1c2ccccc2nc(O)n1-c1ccccc1	217 to 220
c1cc2[nH]ncc2cc1NC1CN2CCC1CC2 (centres undefined)	192 to 194
Cc1nn(Cc2c(Cl)cccc2Cl)c(Cl)c1C(=O)O	187 to 189
O=C(CCl)Nc1ccccc1Br	78 to 80
Cn1cc(C#N)cc1C(=O)C(Cl)(Cl)Cl	146 to 148
